Laboratory results as given in patent US20100004243A1, “PHARMACEUTICAL COMPOUNDS” (Astex Therapeutics Limited, priority 2006, published 2010).

What was measured:
CDK4/CyclinD1 = target: T1, CDK4/CyclinD1 (Homo sapiens, UniProt P11802); test: CDK4 kinase inhibitory activity assay (IC50); type: biochemical; settings: read-out: IC50 against CDK4
T1 construct: purchased Proqinase
Protocol: Assays for CDK4 inhibitory activity can be carried out using the proprietary 33 PanQinase® Activity Assay of Proqinase GmbH, Freiburg, Germany. The assays are performed in 96 well FlashPlates™ (PerkinElmer). In each case, the reaction cocktail (50 μl final volume) is composed of; 20 μl assay buffer (final composition 60 mM HEPES-NaOH, pH 7.5, 3 mM MgCl2, 3 μM Na-orthovanadate, 1.2 mM DTT, 50 μg/ml PEG2000, 5 μl ATP solution (final concentration 1 μM [γ-33P]-ATP (approx 5×10^5 cpm per well)), 5 μl test compound (in 10% DMSO), 10 μl substrate/10 μl enzyme solution (premixed). The final amounts of enzyme and substrate are as below.
The reaction cocktail is incubated at 30° C. for 80 minutes. The reaction is stopped with 50 μl of 2% H3PO4, plates are aspirated and washed twice with 200 μl 0.9% NaCl. Incorporation of ^33P is determined with a microplate scintillation counter. Background values are subtracted from the data before calculating the residual activities for each well. IC50s are calculated using Prism 3.03.
Compounds of the invention can be tested for kinase inhibitory activity using the following protocol.
CDK4/CyclinD1 (Proqinase) is diluted to 12.5 nM in 5 mM Tris pH 7.5, 2.5 mM MgCl2, 25 μM EDTA, 2.5 m M DTT and 125 μM ATP. 10 μl of the enzyme solution is mixed with 10 μl of 100 μl biotin -KAPLSPKKAK4 (Altabioscience, 1 mM stock—10 mg in 2,250 μl H20), 900 μl H2O, 1 μl 10% triton and 35 μCi γ^33P-ATP) and added to 96 well plates along with 5 μl of various dilutions of the test compound in DMSO (up to 4%). The reaction is allowed to proceed for 2 hours before being stopped with an excess of ortho-phosphoric acid (20 μl at 2%).
γ^33P-ATP which remains unincorporated into the biotin -KAPLSPKKAK4 is separated from phosphorylated biotin -KAPLSPKKAK4 on a Millipore MAPH filter plate. The wells of the MAPH plate are wetted with 0.5% orthophosphoric acid, and then the results of the reaction are filtered with a Millipore vacuum filtration unit through the wells. Following filtration, the residue is washed twice with 200 μl of 0.5% orthophosphoric acid. Once the filters have dried, 20 μl of Microscint 20 scintillant is added, and then counted on a Packard Topcount for 30 seconds.
The % inhibition of the CDK4 activity is calculated and plotted in order to determine the concentration of test compound required to inhibit 50% of the CDK4 activity (IC50).

CDK2/CyclinA = CDK2/CyclinA (Homo sapiens, UniProt P24941); test: Activated CDK2/CyclinA kinase inhibitory activity assay, compared with CDK4; type: biochemical
Protocol: Compounds of the invention were tested for kinase inhibitory activity using the following protocol.
Activated CDK2/CyclinA (Brown et al, Nat. Cell Biol., 1, pp 438-443, 1999; Lowe, E. D., et al Biochemistry, 41, pp 15625-15634, 2002) is diluted to 125 pM in 2.5× strength assay buffer (50 mM MOPS pH 7.2, 62.5 mM β-glycerophosphate, 12.5 mM EDTA, 37.5 mM MgCl2, […], 2.5 mM DTT, 2.5 mM sodium orthovanadate, 0.25 mg/ml bovine serum albumin), and 10 μl mixed with 10 μl of histone substrate mix (60 μl bovine histone Hi (Upstate Biotechnology, 5 mg/ml), 940 μl H2O, 35 μCi γ^33P-ATP) and added to 96 well plates along with 5 μl of various dilutions of the test compound in DMSO (up to 2.5%). The reaction is allowed to proceed for 2 to 4 hours before being stopped with an excess of orthophosphoric acid (5 μl at 2%). γ^33P-ATP which remains unincorporated into the histone H1 is separated from phosphorylated histone H1 on a Millipore MAPH filter plate. The wells of the MAPH plate are wetted with 0.5% orthophosphoric acid, and then the results of the reaction are filtered with a Millipore vacuum filtration unit through the wells. Following filtration, the residue is washed twice with 200 μl of 0.5% orthophosphoric acid. Once the filters have dried, 20 μl of Microscint 20 scintillant is added, and then counted on a Packard Topcount for 30 seconds.
The % inhibition of the CDK2 activity is calculated and plotted in order to determine the concentration of test compound required to inhibit 50% of the CDK2 activity (IC50).

T1 sequence (P11802 whole entry): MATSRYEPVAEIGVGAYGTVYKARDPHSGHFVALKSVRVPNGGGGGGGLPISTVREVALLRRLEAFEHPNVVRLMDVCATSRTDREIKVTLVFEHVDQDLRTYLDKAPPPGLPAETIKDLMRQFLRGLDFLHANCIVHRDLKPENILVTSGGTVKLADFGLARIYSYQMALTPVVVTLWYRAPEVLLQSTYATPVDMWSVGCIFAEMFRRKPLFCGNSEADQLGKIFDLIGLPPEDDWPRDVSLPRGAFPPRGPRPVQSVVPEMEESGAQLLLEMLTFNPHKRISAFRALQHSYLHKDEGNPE
T1 sequence (P24385 whole entry partner): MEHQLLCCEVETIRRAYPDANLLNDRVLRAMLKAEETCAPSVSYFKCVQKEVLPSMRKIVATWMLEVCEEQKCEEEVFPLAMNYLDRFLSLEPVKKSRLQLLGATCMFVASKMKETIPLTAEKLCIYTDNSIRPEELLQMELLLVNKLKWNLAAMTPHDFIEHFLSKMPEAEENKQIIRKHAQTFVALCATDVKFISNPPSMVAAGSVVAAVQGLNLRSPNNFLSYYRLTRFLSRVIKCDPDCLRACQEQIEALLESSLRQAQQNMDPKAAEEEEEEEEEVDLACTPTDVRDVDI

IC50 (CDK4/CyclinD1) [µM] | selectivity for CDK4 relative to CDK2 (in words) (CDK2/CyclinA) | Compound
< 5 | – | O=C(Nc1nnc(CCN2CCCCC2)s1)c1n[nH]cc1NC(=O)c1c(F)cccc1F [Example 1]
< 0.1 | selective for CDK4 relative to CDK2 | O=C(Nc1ccc(N2CCNCC2)cn1)c1n[nH]cc1NC(=O)c1c(Cl)cccc1Cl [Example 7]
< 0.1 | selective for CDK4 relative to CDK2 | CN(C)C1CCN(c2ccc(NC(=O)c3n[nH]cc3NC(=O)c3c(F)cccc3F)nc2)CC1 [Example 8]
< 0.1 | selective for CDK4 relative to CDK2 | CN(C)C1CCN(c2ccc(NC(=O)c3n[nH]cc3NC(=O)c3c(F)cccc3F)cc2)CC1 [Example 9]
< 0.1 | selective for CDK4 relative to CDK2 | O=C(Nc1ccc(N2CCNCC2)cn1)c1n[nH]cc1NC(=O)c1c(F)cccc1F [Example 10]
